From US5482957A, “Azole derivatives, process for their preparation and their use” (Hoechst Aktiengesellschaft, priority 1991, dated 1996)

biological target: angiotensin II receptor; test: Displacement of 125I- or 3H-angiotensin II from receptor preparations from various organs (liver, lung, adrenal gland, brain etc.); assay type: binding; conditions: Table 1; radioligand displacement, 25° C., 90 min, pH 7.4
Method: Alternatively, the affinity of the compounds of the formula I for the angiotensin II receptor can be determined by measurement of the ^125 I-angiotensin II or ^3 H-angiotensin II displacement of receptor preparations from various organs (liver, lung, adrenal gland, brain etc.).
To this end, the prepared membranes are suspended in an incubation buffer ([…], pH 7.4, containing 135 mM NaCl, 10 mM KCl, 10 mM MgCl2, 5 mM glucose, 0.2% bovine serum albumin and the protease inhibitors PMSF, 0.3 mM, and bacitracin, 0.1 mM) and incubated at 25° C. for 90 min together with the radioactively labeled angiotensin II and various concentrations of the compounds to be tested. Bound and free radioligand are then separated by filtration through micro glass fiber filters (GF51, Schleicher and Schull) in a cell collector (SKATRON).
The degree of displacement of the radioligand from the receptor by the test compounds is determined by measurement of the receptor-bound radioactivity on the filters by means of a beta- or gamma-spectrometer. The amount of the displacement of the radioligand from the receptor by the test compounds is indicated by the IC50, i.e. the concentration of the inhibitor which displaces 50% of the bound radioligand from the receptor. The calculation of the IC50 values is carried out by means of PC software (LIGAND, G. A. McPherson 1985, Elsevier BIOSOFT, 68 Hills Road, Cambridge, CB2 1LA, UK.).

Structure (SMILES) | IC50 [nM]
CCCCc1nc(SC)c(C(=O)O)n1Cc1ccc(-c2ccccc2S(=O)(=O)NC(=O)NCCCN2CCCC2=O)cc1 [Example 116] | 2.4
CCCCc1nc(SC)c(C(=O)OCC)n1Cc1ccc(-c2ccccc2S(=O)(=O)NC(=O)NCCCc2ccccc2)cc1 [Example 76] | 9.5
CCCCc1nc(SC)c(C(=O)O)n1Cc1ccc(-c2ccccc2S(=O)(=O)NC(=O)NCc2cccnc2)cc1 [Example 112] | 1.5
CCCCc1nc(SC)c(C(=O)O)n1Cc1ccc(-c2ccccc2S(=O)(=O)NC(=O)OCC=C(C)C)cc1 [Example 165] | 2.3
CCCCc1ncc(C(=O)OCC)n1Cc1ccc(-c2ccccc2S(=O)(=O)NC(=O)NCc2ccccc2)cc1 [Example 187, Ethyl 1-{[(2'-benzylaminocarbonylaminosulfonyl)biphenyl-4-yl]methyl}-2-n-butylimidazole-5-carboxylate] | 1.2
CCCCc1nc(SC)c(C(=O)OCC)n1Cc1ccc(-c2ccccc2S(=O)(=O)NC(=O)NCc2cccc(OC)c2)cc1 [Example 85] | 3.9
CCCCc1nc(SC)c(C(=O)O)n1Cc1ccc(-c2ccccc2S(=O)(=O)NC(=O)NCCN2CCOCC2)cc1 [Example 107] | 2.5
CCCCc1nc(Cl)c(C=O)n1Cc1ccc(-c2ccccc2S(=O)(=O)NC(=O)Nc2ccc(C)cc2)cc1 [Example 35] | 50
C=CCOC(=O)NS(=O)(=O)c1ccccc1-c1ccc(Cn2c(CCCC)nc(SC)c2C(=O)O)cc1 [Example 181, 1-[(2'-allyloxycarbonylaminosulfonylbiphenyl-4-yl)methyl]-2-n-butyl-4-methylthioimidazole-5-carboxylic acid] | 1
CCCCc1nc(SC)c(C(=O)O)n1Cc1ccc(-c2ccccc2S(=O)(=O)NC(=O)N[C@H](CO)c2ccccc2)cc1 [Example 124] | 1.8
CCCCc1nc(SC)c(C(=O)OCC)n1Cc1ccc(-c2ccccc2S(=O)(=O)NC(=O)N[C@H](C(=O)OC)C(C)C)cc1 [Example 69] | 3.2
CCCCc1nc(SC)c(C(=O)OCC)n1Cc1ccc(-c2ccccc2S(=O)(=O)NC(=O)OC)cc1 [Example 174] | 5.1
CCCCc1nc(SC)c(C(=O)O)n1Cc1ccc(-c2ccccc2S(=O)(=O)NC(=O)N[C@H](CO)Cc2ccccc2)cc1 [Example 129] | 1.5
CCCCc1nc(Cl)c(C=O)n1Cc1ccc(-c2ccccc2S(=O)(=O)NC(=O)Nc2ccccc2OC)cc1 [Example 33] | 34
CCCCc1nc(SC)c(C(=O)O)n1Cc1ccc(-c2ccccc2S(=O)(=O)NS(=O)(=O)c2cccs2)cc1 [Example 190, 1-[(2'-{2-Thienylsulfonylaminosulfonyl}biphenyl-4-yl)methyl]-2-n-butyl-4-methylthioimidazole-5-carboxylic acid] | 22
C=C(C)COC(=O)NS(=O)(=O)c1ccccc1-c1ccc(Cn2c(CCCC)nc(SC)c2C(=O)O)cc1 [Example 166] | 1.2
CCCCc1nc(SC)c(C(=O)O)n1Cc1ccc(-c2ccccc2S(=O)(=O)NC(=O)NCC2CCCCC2)cc1 [Example 60] | 2.2
CCCCc1nc(SC)c(C(=O)O)n1Cc1ccc(-c2ccccc2S(=O)(=O)NC(=O)OCCOCc2ccccc2)cc1 [Example 172] | 0.48
C=C[C@H](Cc1ccccc1)NC(=O)NS(=O)(=O)c1ccccc1-c1ccc(Cn2c(CCCC)nc(SC)c2C(=O)O)cc1 [Example 127] | 3
CCCCc1nc(SC)c(C(=O)O)n1Cc1ccc(-c2ccccc2S(=O)(=O)NC(=O)OCC=Cc2ccccc2)cc1 [Example 162] | 3.9
CCCCc1nc(SC)c(C(=O)OCC)n1Cc1ccc(-c2ccccc2S(=O)(=O)NC(=O)NC(C)c2ccccc2)cc1 (stereo not drawn) [Example 95] | 1.8
CCCCc1nc(SC)c(C(=O)O)n1Cc1ccc(-c2ccccc2S(=O)(=O)NC(=O)NCCc2cccc(C(F)(F)F)c2)cc1 [Example 79] | 5.8
CCCCc1nc(SC)c(C(=O)O)n1Cc1ccc(-c2ccccc2S(=O)(=O)NC(=O)OCC2CC2)cc1 [Example 155] | 6
CCCCc1nc(SC)c(C(=O)OCC)n1Cc1ccc(-c2ccccc2S(=O)(=O)NC(=O)OCc2cccs2)cc1 [Example 163] | 3.7
